From ChEMBL document CHEMBL1122446 come the findings set out here.

Assay [1] addresses Dihydrofolate reductase (Lactobacillus casei) (UniProt P00381). Particulars: Lacticaseibacillus casei.
In assay [2] the target is T1, Dihydrofolate reductase (Gallus gallus) (UniProt P00378).
T1 sequence (whole entry): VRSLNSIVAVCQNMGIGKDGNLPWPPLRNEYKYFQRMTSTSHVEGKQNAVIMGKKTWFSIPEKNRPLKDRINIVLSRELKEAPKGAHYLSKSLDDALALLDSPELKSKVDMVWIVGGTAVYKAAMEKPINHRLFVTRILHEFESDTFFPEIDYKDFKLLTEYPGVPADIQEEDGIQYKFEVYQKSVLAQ

Assay [3] concerns the target T2, Dihydrofolate reductase (Homo sapiens) (UniProt P00374).
T2 sequence (whole entry): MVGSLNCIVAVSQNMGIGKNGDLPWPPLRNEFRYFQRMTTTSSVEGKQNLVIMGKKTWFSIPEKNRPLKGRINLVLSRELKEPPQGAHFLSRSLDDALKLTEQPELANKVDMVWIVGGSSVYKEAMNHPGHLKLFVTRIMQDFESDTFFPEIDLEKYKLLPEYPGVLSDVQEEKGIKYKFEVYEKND

Dihydrofolate reductase (Lactobacillus casei), sequence (P00381 whole entry): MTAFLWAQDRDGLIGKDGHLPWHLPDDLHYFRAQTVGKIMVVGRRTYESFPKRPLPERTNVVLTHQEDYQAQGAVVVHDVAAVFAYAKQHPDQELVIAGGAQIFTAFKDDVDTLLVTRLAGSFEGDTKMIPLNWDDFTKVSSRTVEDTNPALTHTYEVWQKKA

Turning to `CN(C)c1cccc2c(S(=O)(=O)NCCCCC(NC(=O)c3ccc(N(C)Cc4cnc5nc(N)nc(N)c5n4)cc3)C(=O)O)cccc12` (stereo unspecified), the I / E100 in assay [1] was determined as 1.9; in assay [2], 3.5; in assay [3], 2.9.

As for `CN(Cc1cnc2nc(N)nc(N)c2n1)c1ccc(C(=O)NC(CCCCN)C(=O)O)cc1` (stereo unspecified), the I / E100 in assay [1] amounted to 1; in assay [2], 1.4; in assay [3], 1.
